pEC50: −log10 of the molar value. Like-named read-outs stand apart in the source and are kept apart here.
Key:
[1] = biological target: T1, mutant integrin CD11bE320A/CD18 (Homo sapiens, UniProt P11215, E336A); test: HTS cell adhesion assay, K562 E320A cells on immobilized fibrinogen; type: cell-based; settings: five point dose-response
T1 construct: expressed in transfected cells; host or cells: K562 (ATCC)
Procedure: K562 cells stably expressing CD11c/CD18 (K562 CD11c/CD18) were generated similarly. […] K562 cells stably transfected with mutant integrin CD11bE320A/CD18 (K562 E320A) were generated according to literature protocols. All cell lines were maintained in Iscove's Modified Dulbecco's Medium (IMDM) supplemented with 10% heat-inactivated fetal bovine serum, 50 IU/mL penicillin and streptomycin and 0.5 mg/mL G418.
(§1) Cell adhesion assays with immobilized ligands were performed using the general protocol previously described and as illustrated in FIG. 1 [33]. Assays with all different K562 cell lines (K562, K562 CD11b/CD18, K562 CD11c/CD18 and K562 E320A) were performed in an identical fashion. Briefly, 384-well microplates (Corning 3700) were coated with 15 μg/mL fibrinogen (Fg) ligand in PBS^++ overnight at 4° C. At the same time, anti-CD18 (IB4) mAb was also coated. Subsequently, the coated wells were washed with 1% nonfat milk in TBS at room temperature for 1 hour. Next, the wells were washed 3 times with TBS, and the coated microplates were used in the HTS assays.
(§2) K562 CD11b/CD18, K562 CD11bE320A/CD18 and K562 CD11c/CD18 cells were washed with TBS, and cells were transferred to the Fg-coated wells of microplates in the assay buffer (Ca^2+ and Mg^2+ for physiological condition, Mn^2+ as the Positive control). A 1 μL aliquot of the compounds were transferred to each washed well with multichannel pipet from the 384-well plates.
(§3) The assay plates were incubated at 37° C. in the presence of small-molecule compounds for 30 min. To dislodge the non-adherent cell, the assay plates were gently inverted and kept in inverted position for 20 min at room temperature.
(§4) The cells were fixed with 37% formaldehyde in a small volume and the plates were kept inverted for 1 h. Upon the fixation, the solutions in the well were discarded. Next, the cells were fluorescently labeled with DAPI (0.5 μM final in TBS with 0.1% Triton X-100) and the quantitated with “Opera High Content Screening System” (Perkin Elmer).
(§5) Cell-adhesion under positive and negative control conditions was used to define the activity scale; signal corresponding to the number of non-small molecule treated cells adherent in activating buffer condition (in the presence of Mn^2+ ions as agonist, PC) was considered maximum (100% binding) and the signal corresponding to the number of non-small molecule treated cells adherent in basal buffer condition (in the presence of 1 mM each of Ca^2+ and Mg^2+, NC) was considered minimum (0% binding).

[2] = biological target: T2, integrin CD11c/CD18 (Homo sapiens, UniProt P20702); test: HTS cell adhesion assay, K562 CD11c/CD18 cells on immobilized fibrinogen; type: cell-based; settings: for EC50 CD11c/CD18: Table 3
T2 construct: expressed in transfected cells; host or cells: K562 (ATCC)
Procedure: K562 cells stably expressing CD11c/CD18 (K562 CD11c/CD18) were generated similarly. Mutant CD11bE320A has been described previously. K562 cells stably transfected with mutant integrin CD11bE320A/CD18 (K562 E320A) were generated according to literature protocols. All cell lines were maintained in Iscove's Modified Dulbecco's Medium (IMDM) supplemented with 10% heat-inactivated fetal bovine serum, 50 IU/mL penicillin and streptomycin and 0.5 mg/mL G418.
as §1, §2, §3, §4
as §5, with “binding). […]” for “binding).”
The compounds were diluted in DMSO by the final concentration 10 μM, 5 μM, 2.5 μM, 1.25 μM and 0.625 μM and stocked as sealed in 384-well plates at −80° C.

[3] = Table 3, adhesion to fibrinogen
[4] = K562 CD11c/CD18 cells, adhesion to fibrinogen, dose-response

T2 sequence (P20702 with tags, fused parts or gaps): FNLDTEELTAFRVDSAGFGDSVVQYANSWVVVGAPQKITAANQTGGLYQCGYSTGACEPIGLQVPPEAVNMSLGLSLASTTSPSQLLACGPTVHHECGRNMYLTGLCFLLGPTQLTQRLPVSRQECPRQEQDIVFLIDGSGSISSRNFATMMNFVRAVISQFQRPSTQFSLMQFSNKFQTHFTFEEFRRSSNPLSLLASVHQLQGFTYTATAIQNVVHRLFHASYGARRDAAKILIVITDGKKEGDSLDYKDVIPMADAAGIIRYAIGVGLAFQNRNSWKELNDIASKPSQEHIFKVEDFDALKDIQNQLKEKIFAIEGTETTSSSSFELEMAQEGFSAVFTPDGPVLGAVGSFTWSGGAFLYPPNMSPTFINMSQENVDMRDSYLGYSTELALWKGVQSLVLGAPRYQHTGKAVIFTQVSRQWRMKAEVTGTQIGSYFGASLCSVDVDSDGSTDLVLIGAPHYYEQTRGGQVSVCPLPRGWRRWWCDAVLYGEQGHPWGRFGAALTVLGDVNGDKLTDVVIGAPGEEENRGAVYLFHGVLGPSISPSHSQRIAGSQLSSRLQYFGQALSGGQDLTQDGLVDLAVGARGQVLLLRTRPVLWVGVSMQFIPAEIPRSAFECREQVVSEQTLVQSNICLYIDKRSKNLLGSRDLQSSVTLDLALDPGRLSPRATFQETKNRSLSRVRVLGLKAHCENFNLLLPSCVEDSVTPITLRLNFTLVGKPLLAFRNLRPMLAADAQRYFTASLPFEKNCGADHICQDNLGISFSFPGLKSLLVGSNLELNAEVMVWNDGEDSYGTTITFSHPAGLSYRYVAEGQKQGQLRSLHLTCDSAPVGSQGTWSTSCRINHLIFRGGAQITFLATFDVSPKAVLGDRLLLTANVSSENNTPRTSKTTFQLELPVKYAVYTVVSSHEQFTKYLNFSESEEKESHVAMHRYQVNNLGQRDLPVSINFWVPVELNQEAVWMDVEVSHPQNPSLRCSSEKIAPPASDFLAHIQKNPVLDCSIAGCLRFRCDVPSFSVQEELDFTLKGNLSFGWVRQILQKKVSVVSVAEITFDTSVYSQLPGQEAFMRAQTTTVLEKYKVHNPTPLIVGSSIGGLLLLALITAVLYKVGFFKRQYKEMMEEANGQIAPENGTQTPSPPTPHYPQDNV
T2 sequence (P05107 23-769 partner): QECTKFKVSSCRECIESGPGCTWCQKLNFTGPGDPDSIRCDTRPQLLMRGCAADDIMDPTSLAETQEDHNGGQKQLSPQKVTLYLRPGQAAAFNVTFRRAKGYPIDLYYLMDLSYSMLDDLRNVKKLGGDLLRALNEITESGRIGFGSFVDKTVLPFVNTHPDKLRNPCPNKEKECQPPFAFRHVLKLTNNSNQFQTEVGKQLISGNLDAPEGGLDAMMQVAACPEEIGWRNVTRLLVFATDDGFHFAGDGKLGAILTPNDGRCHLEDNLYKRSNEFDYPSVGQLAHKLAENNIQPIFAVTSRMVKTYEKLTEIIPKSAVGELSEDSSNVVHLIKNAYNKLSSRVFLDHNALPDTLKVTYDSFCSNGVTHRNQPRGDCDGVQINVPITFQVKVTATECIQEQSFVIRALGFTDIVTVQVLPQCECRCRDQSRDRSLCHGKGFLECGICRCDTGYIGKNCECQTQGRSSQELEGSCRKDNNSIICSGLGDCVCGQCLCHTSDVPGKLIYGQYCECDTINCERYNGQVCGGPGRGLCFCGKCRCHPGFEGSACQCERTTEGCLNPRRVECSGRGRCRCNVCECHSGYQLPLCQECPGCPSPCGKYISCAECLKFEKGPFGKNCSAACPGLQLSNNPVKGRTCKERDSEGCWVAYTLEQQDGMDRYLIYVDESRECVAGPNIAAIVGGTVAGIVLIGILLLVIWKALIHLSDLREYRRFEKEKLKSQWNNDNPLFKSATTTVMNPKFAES
T1 sequence (P11215 17-1152 E336A): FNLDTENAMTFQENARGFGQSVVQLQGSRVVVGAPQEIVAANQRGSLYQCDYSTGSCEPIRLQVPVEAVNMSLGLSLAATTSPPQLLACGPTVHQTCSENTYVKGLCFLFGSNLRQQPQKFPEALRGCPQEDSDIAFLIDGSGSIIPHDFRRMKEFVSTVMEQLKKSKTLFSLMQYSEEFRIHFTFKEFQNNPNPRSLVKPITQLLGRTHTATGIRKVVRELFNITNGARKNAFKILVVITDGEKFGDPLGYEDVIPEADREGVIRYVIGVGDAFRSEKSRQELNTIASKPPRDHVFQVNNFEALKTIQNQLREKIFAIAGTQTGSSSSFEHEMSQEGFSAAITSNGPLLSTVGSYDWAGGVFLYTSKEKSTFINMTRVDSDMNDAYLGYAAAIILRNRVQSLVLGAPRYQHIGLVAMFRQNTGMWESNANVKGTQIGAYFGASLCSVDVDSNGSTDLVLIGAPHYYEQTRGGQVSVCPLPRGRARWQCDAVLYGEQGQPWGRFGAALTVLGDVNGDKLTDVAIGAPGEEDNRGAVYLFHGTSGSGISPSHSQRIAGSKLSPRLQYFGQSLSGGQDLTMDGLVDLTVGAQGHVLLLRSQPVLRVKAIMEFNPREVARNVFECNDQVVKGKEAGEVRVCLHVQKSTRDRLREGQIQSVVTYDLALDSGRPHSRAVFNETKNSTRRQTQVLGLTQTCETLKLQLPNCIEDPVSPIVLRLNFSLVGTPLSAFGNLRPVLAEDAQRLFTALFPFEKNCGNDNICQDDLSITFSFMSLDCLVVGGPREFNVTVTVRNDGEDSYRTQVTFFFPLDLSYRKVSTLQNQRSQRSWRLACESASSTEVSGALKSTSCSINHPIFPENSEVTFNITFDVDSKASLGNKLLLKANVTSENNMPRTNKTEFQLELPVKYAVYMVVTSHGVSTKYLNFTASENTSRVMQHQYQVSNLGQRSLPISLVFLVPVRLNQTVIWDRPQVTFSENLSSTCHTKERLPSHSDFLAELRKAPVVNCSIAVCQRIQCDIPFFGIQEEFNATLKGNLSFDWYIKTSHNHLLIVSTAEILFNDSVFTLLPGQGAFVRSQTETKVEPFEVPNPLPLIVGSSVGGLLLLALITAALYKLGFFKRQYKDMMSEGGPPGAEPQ
T1 sequence (P05107 23-769 partner): as the sequence (P05107 23-769 partner) above

pEC50 [1, 3]	pEC50 [2]	SMILES	further results
5.57	5.60	Cc1cc(C)cc(-n2c(N)c(C(=O)Nc3c(C)n(C)n(-c4ccccc4)c3=O)c3nc4ccccc4nc32)c1 [Compound 1967927]	–
5.17	5.37	CCOc1ccc(NC(=O)c2ccc(CNc3c(NC4CCCCC4)c(=O)c3=O)cc2)cc1 [Compound 11957216]	–
5.28	5.33	CCCCn1c(SCC(=O)c2ccc(OC)cc2OC)nc2cc(S(N)(=O)=O)ccc21 [Compound 2997788]	–
5.44	5.57	O=C(Nc1ccc2oc(-c3ccccc3F)nc2c1)c1cncc(Br)c1 [Compound 1295289]	–
5.33	5.60	O=C(Nc1ccc2nc(-c3ccco3)c(-c3ccco3)nc2c1)N1CCCCCC1 [Compound 2214811]	–
5.60	5.60	C=CCOC(=O)c1cc(-c2ccc(/C=C3\C(=O)NC(=O)C(C#N)=C3C)o2)ccc1Cl [Compound 5769297]	–
5.16	5.60	COc1ccccc1NC(=O)c1sc2ncn(Cc3ccc(C)cc3)c(=O)c2c1C [Compound 1078286]	–
6.68	–	CCC(=O)Nc1c(C#N)c2nc3ccccc3nc2n1C1CCCCC1 [Compound 658936]	EC50 CD11c/CD18 [2, 4]: 1.669 (Reverse)
5.63	5.70	C/C(=N/NC(=O)c1cc2ccccc2cc1O)C1C(=O)c2ccccc2C1=O [Compound 5431927]	–
5.23	5.52	O=C(Nc1nc(-c2ccco2)c(-c2ccco2)s1)C1CC(=O)N(c2ccc3c(c2)OCCO3)C1 (stereo not drawn) [Compound 2998894]	–
5.22	5.20	Cc1onc(-c2c(Cl)cccc2Cl)c1C(=O)NC(=S)Nc1sc2c(c1C(N)=O)CCC(C)C2 (stereo not drawn) [Compound 3466680]	–
5.89	6.16	COc1ccc2cc3cc(C(=O)Nc4ccc5c(c4)OCCO5)oc3nc2c1 [Compound 3241193]	–
5.18	5.75	CCOC(=O)c1c(NC(=O)c2cc(-c3ccc(Cl)s3)nc3ccccc23)sc(C(N)=O)c1C [Compound 2163411]	–
5.29	5.16	Cc1ccc(C)c(NC(=S)NC(NC(=O)Cc2cccc3ccccc23)C(Cl)(Cl)Cl)c1 (stereo not drawn) [Compound 2831455]	–
5.40	5.64	Cc1c(N2C(=O)c3ccc4c5c(ccc(c35)C2=O)CC4)c(=O)n(-c2ccccc2)n1C [Compound 1356461]	–
5.55	5.72	O=C1Nc2ccccc2SC(c2ccccc2)C1O (stereo not drawn) [Compound 3242458]	–
4.66	–	N#C/C(=C\c1ccc(OCc2ccccc2)cc1)C(=O)Nc1nc2c(s1)CCN(Cc1ccccc1)C2 [Compound 2327777]	EC50 CD11c/CD18 [2, 4]: Infinite
5.30	5.67	CCn1c(=NC(=O)c2ccc(N3C(=O)CCC3=O)cc2)sc2c(OC)ccc(OC)c21 [Compound 2150886]	–
5.57	5.86	Cc1ccc2nsnc2c1NC(=O)c1ccc(-c2cc(Cl)ccc2Cl)o1 [Compound 1334850]	–
5.20	5.28	C=CCn1c(SCC(=O)c2ccc(CNC(C)=O)o2)nc2scc(C3CC3)c2c1=O [Compound 2569132]	–
5.15	5.51	O=C(Nc1ccc(NC(=O)c2ccc(S(=O)(=O)c3ccccc3)cc2)cc1)c1ccccc1 [Compound 1144109]	–
5.10	5.28	COc1ccc(/C=C2/SC(=O)N(CC(=O)Nc3cc(C)on3)C2=O)cc1OC [Compound 1554642]	–
5.17	5.61	Cc1ccccc1Cn1c(=O)n(CC2CCC(C(=O)NCCc3ccccc3)CC2)c(=O)c2ccccc21 (stereo not drawn) [Compound 12006068]	–

pEC50 [1, 3]	pEC50 [2]	SMILES	further results
6.00	6.25	COC(=O)c1[nH]c2ccc(C)cc2c1NC(=O)CN1CCCc2ccccc21 [Compound 658948]	–
5.26	5.57	CCOC(=O)N1CCC(NC(=O)c2ccc3c(c2)sc2nc(-c4ccc(OC)cc4)cn23)CC1 [Compound 3235854]	–
5.29	5.63	N#Cc1sc2nc(-c3ccccc3)cc(-c3ccco3)c2c1N [Compound 629074]	–
5.31	5.34	COc1ccc(-c2nnn(CC(=O)Nc3sc4c(c3C#N)CCCC4)n2)cc1 [Compound 652695]	–
5.27	5.52	CCc1nnc(NC(=O)c2sc3nc4c(cc3c2N)CCCCCC4)s1 [Compound 5143923]	–
5.19	4.98	O=C(Nc1nnc(-c2ccccc2SCc2ccccc2)s1)Nc1ccccc1F [Compound 1964957]	–
5.38	5.48	Cc1ccc(-n2nnnc2SCC(=O)Nc2ccc3c(c2)COC3=O)cc1C [Compound 1227337]	–
5.62	5.89	CC(=O)Nc1ccc(-c2nnc(SCC(=O)n3c4c(c5ccccc53)CCCC4)n2C)cc1 [Compound 1310712]	–
5.16	5.28	Cc1ccc(/C=c2\sc3nc(-c4ccccc4Br)nn3c2=O)o1 [Compound 1891182]	–
5.80	5.14	O=C(CCN1C(=O)c2ccccc2C1=O)Nc1ccc(-c2nc3ccccc3o2)cc1 [Compound 1262031]	–
5.19	5.59	COC(=O)c1ccc2c(c1)N(Cc1nc(-c3cccc(C)c3)oc1C)C(=O)C1CCCN21 (stereo not drawn) [Compound 5309602]	–
5.31	5.58	CSc1nc(N(CCO)CCO)c2sc3nc(-c4ccco4)c4c(c3c2n1)CCC4 [Compound 665142]	–
5.61	5.58	CC(=O)c1ccc(NC(=O)c2ccc3nc(-c4ccco4)c(-c4ccco4)nc3c2)cc1 [Compound 1331726]	–
4.91	–	COc1ccc2cc(/C=N/NC(=O)c3ccc(CN(c4ccc(C)c(C)c4)S(C)(=O)=O)cc3)c(Cl)nc2c1 [Compound 9564362]	–
4.93	–	O=[N+]([O-])c1ccc(-c2ccc(/C=N/c3c(-c4ccco4)nc4ccccn34)o2)c(Cl)c1 [Compound 9617832]	–
–	–	COc1ccc(-c2cc(C(=O)OCC(=O)Nc3ccc4c(c3)OCO4)c3ccccc3n2)cc1 [Compound 2338283]	EC50 E320A [1, 3]: Infinite
4.78	–	O=c1cc(CN2CCN(c3cccc(Cl)c3)CC2)c2cc(O)c(-c3ccccc3)cc2o1 [Compound 3287222]	–
4.91	–	COCCNC(=S)N/N=C/c1ccc(OCc2ccc(C(=O)OC)cc2)cc1 [Compound 6892710]	–
4.93	–	COc1ccc(-c2nn(C)c(=O)c3ccccc23)cc1NC(=O)Cn1nc(C)c2ccccc2c1=O [Compound 1314910]	–
4.45	–	CC1CCc2c(sc(NC(=O)c3ccc(Cn4cc(Br)cn4)o3)c2C(N)=O)C1 (stereo not drawn) [Compound 2941732]	–
5.01	–	Cc1[nH]nc2ncc(C(=O)c3cc(Cl)cc(Cl)c3O)cc12 [Compound 2421294]	–
4.14	–	CCN(CC)c1ccc(C(=O)OCC(=O)Nc2cc3oc4ccccc4c3cc2OC)cc1 [Compound 2078838]	–

SMILES	pEC50 [1, 3]	pEC50 [2]	further results
CCOC(=O)c1c(-n2c(C)cc(C=C3C(=O)NC(=S)NC3=O)c2C)sc2c1CCCC2 [Compound 1494229]	5.19	–	pEC50 ([1]; Table 4, adhesion to fibrinogen): 5.19; pEC50 ([2]; Table 4, K562 CD11c/CD18 cells, adhesion to fibrinogen, dose-response, read-out: EC50 CD11c/CD18): 5.17
O=C(Nc1ccc(N2CCN(c3ccc(O)cc3)CC2)cc1)Oc1ccccc1 [Compound 1317528]	5.44	5.67	–
CCCCN1C(=O)/C(=C/c2ccc(N3CCCCCC3)cc2)C(=O)NC1=S [Compound 2067755]	4.11	–	–

— patent publication US20180319865A1, “Identification of Novel Small Molecule Beta2 Integrin Agonists” (Rush University Medical Center, priority 2016, published 2018)
